This is an account of results in patent US20110250613A1, “Arrayed Multiple Ubiquitin Binding Domains as Linkage-specific Polyubiquitin Affinity Reagents” (THE JOHNS HOPKINS UNIVERSITY, priority 2009, published 2011).

For assay [1], the system named is K63-Ub4. The assay can be described thus: Fluorescence anisotropy binding of fluorescent free UBA domains to K63-Ub4. To be noted: free UBA domains. An excerpt:
(§1) Fluorescent Labeling. Ede1 UBA, hHR23A UBA1, Dsk2 UBA and Ddi1 UBA were produced as intein fusions and fluorescently labeled using expressed protein ligation as described in Scheibner et al., 2003. The dipeptide used for Ede1 labeling was Cys-Lys, with NHS-rhodamine (Pierce) coupled to the lysine amino group, and was a kind gift from Philip Cole (Johns Hopkins School of Medicine). MALDI mass spectroscopy confirmed the addition of the fluorescent dipeptide to the Ede1 UBA domain and that there was complete cleavage of the initiating methionine residue. hHR23A UBA1, Dsk2, and Ddi1 UBAs were labeled in a similar way, except that the dipeptide contained a fluorescein moiety instead of rhodamine. The fluorescein-labeled dipeptide was made as described in Scheibner et al., 2003. […]
(§2) Fluorescence Anisotropy Binding Assays. Fluorescence anisotropy measurements were performed as described (Sims and Cohen, 2009) using excitation and emission maxima of 492 nm/520 nm (fluorescein), 556 nm/569 nm (Alexa Fluor 546), or 555 nm/578 nm (rhodamine), in binding buffer at 25° C. The concentrations of the fluorescent proteins were calculated using published extinction coefficients (Invitrogen-Molecular Probes). polyUb concentrations were assessed from absorbance at 280 nm using the Ub extinction coefficient of 0.16 (mg per ml)^−1 cm^'1.49. […]

The target of assay [2] is K48-Ub4. The assay can be described thus: Fluorescence anisotropy binding of fluorescent free UBA domains to K48-Ub4. As to conditions: free fluorescent UBA domain.
Excerpt: as §1, §2

Assay [3] has as its target T1, K63-Ub4 (Homo sapiens, UniProt P0CG47, K63R).
T1 construct: Ub and K48- and K63-linked diUb and tetraUb were made as described; made in house
The assay can be described thus: SPR of captured GST-UBA proteins with K63-Ub4. It counts as binding. As to conditions: SPR (Table 4) versus fluorescence anisotropy (Table 5). The procedure: Surface Plasmon Resonance. SPR analyses was performed on a Biacore 3000 instrument at 25° C. in HBS-EP buffer (Biacore). Anti-GST antibody (Biacore) was immobilized by amine coupling on a Biacore CM5 chip. GST-UBA proteins were captured on a measurement surface at a density of 150-400 RU; an antibody-coupled surface served as the reference. Ubn chains were applied to the chip with a 5 μl/min flow rate and recorded the response; 50 mM glycine pH 1.8 or 15 mM NaOH was used to remove GST-UBA proteins and renew the surface. The data was fit with a single-site binding model as described in Wilkinson, 2004.
Background: Polarisation of emitted light reports the rotation of a fluorescent probe.

Another assay has as its system K63-Ub4 and K48-Ub4. The assay can be described thus: GST pull-down assay with 125I-labeled K63- or K48-Ub4. It counts as binding. The method, then:
Pull-Down Assays. GST-UBA protein was added to 15 μl of glutathione-agarose and the beads were washed with binding buffer [25 mM phosphate pH 7.4, 150 mM NaCl, 10 mM β-mercaptoethanol, 1 mM EDTA, 0.05% (v/v) Brij35]. ^125I-labeled K63 or K48-Ub4 (1 μM) was then added in 100 μl of binding buffer plus 1 mg ml^−1 BSA, and the beads agitated gently for 20 min. at room temperature. The specific radioactivities of ^125I-labeled K63- and K48-Ub4 were normalized beforehand with unlabeled chains. The beads were then washed quickly 2 or 3 times with binding buffer. The bound chains were eluted with SDS-PAGE sample buffer and resolved by SDSPAGE. The Ub4 bands were excised from the gel and quantified with a gamma-counter. “Bound counts” in FIG. 12d and FIG. 15d is the radioactivity (cpm) for a particular band minus the counts in the corresponding gel slice in the negative-control lane.

The target of the next assay is T2, monoUb (Homo sapiens, UniProt P0CG47).
T2 construct: Ub and K48- and K63-linked diUb and tetraUb were made as described; made in house
The assay can be described thus: Fluorescence anisotropy binding of fluorescent UIM peptides to monoUb. An excerpt: (§3) Fluorescent Labeling. Rap80 tUIM peptides were fluorescently-labeled on the sulfhydryl group of C121 (see FIG. 1). For longer Rap80 constructs, all cysteines except C121 were mutated to serine for site-specific labeling. Ataxin-3 and Vps27 UIM peptides were labeled on a single cysteine introduced at the C-terminus. Fluorescein-5-maleimide (Pierce) was coupled to cysteines following the manufacturer's instructions. After desalting through Sephadex G-25 resin, fluorescein-labeled tUIM peptides were separated from unlabeled peptides by anion-exchange chromatography (MonoQ column, GE Biosciences) by elution with a NaCl gradient in 50 mM Tris buffer, pH 7.9. […] Fluorescence Anisotropy Binding Assays. Fluorescence anisotropy measurements were made using a Fluoromax 4 fluorometer in L format, thermostatted at 25° C. […] Anisotropies were calculated by the instrument software, and the overall intensity of the fluorescence signal was monitored at each point with the polarizers oriented at the magic angle. All measurements were made in fluorescence buffer (25 mM Na phosphate [pH 7.4], 150 mM NaCl, 5 mM β-mercaptoethanol, 1 mM EDTA, and either 0.005% surfactant P20 (BIACORE) or 0.05% Brij35). Concentrations of the fluorescent proteins were calculated using the fluorescein extinction coefficient at 494 nm, 68000 M^-1 cm^-1. […]

Another assay concerns the target T3, K63-Ub2 (Homo sapiens, UniProt P0CG47, K63R).
T3 construct: Ub and K48- and K63-linked diUb and tetraUb were made as described; made in house
The assay can be described thus: Fluorescence anisotropy binding of fluorescent tUIM peptides to K63-Ub2. To be noted: fluorescence anisotropy. An excerpt:
Fluorescent Labeling. Rap80 tUIM peptides were fluorescently-labeled on the sulfhydryl group of C121 (see FIG. 1). For longer Rap80 constructs, all cysteines except C121 were mutated to serine for site-specific labeling. Ataxin-3 and Vps27 UIM peptides were labeled on a single cysteine introduced at the C-terminus. Fluorescein-5-maleimide (Pierce) was coupled to cysteines following the manufacturer's instructions. After desalting through Sephadex G-25 resin, fluorescein-labeled tUIM peptides were separated from unlabeled peptides by anion-exchange chromatography (MonoQ column, GE Biosciences) by elution with a NaCl gradient in 50 mM Tris buffer, pH 7.9. The labeled peptides were essentially 100% pure by SDS-PAGE and Coomassie blue staining, and MALDI-TOF mass spectrometry confirmed the addition of a single fluorescein moiety. Fluorescence Anisotropy Binding Assays. Fluorescence anisotropy measurements were made using a Fluoromax 4 fluorometer in L format, thermostatted at 25° C. Excitation and emission monochromators were set at 492 nm and 520 nm, respectively. Slit widths were 3 nm for diUb-binding assays ([…]) or 6 nm for tetraUb-binding assays ([…]). Anisotropies were calculated by the instrument software, and the overall intensity of the fluorescence signal was monitored at each point with the polarizers oriented at the magic angle. All measurements were made in fluorescence buffer (25 mM Na phosphate [pH 7.4], 150 mM NaCl, 5 mM β-mercaptoethanol, 1 mM EDTA, and either 0.005% surfactant P20 (BIACORE) or 0.05% Brij35). Concentrations of the fluorescent proteins were calculated using the fluorescein extinction coefficient at 494 nm, 68000 M^-1 cm^-1. (poly)Ub concentrations were assessed by absorbance at 280 nm using the extinction coefficient 0.16 (mg/ml)^-1 cm^-1 ([…] and Raasi, 2005). Fluorescence anisotropy data were fit with a single-site binding model as described (Wilkinson, 2004). The equilibrium constants for wild-type Vps27 peptide binding to K63 and K48 Ub4 were determined by competition with the fluorescent Vps27 7aa linker peptide as described (Wilkinson, 2004).

In a further assay the target is T4, K48-Ub2 (Homo sapiens, UniProt P0CG47, K48R).
T4 construct: Ub and K48- and K63-linked diUb and tetraUb were made as described; made in house
In words: Fluorescence anisotropy binding of fluorescent tUIM peptides to K48-Ub2. To be noted: single-site fit, 25° C., pH 7.4.

In assay [4] the target is T1, K63-Ub4. In words: Fluorescence anisotropy binding of fluorescent tUIM peptides to K63-Ub4. To be noted: fluorescence anisotropy, single-site fit, 25° C., pH 7.4.
Excerpt: as §3

The subject of assay [5] is K48-Ub4. The assay can be described thus: Fluorescence anisotropy binding of fluorescent tUIM peptides to K48-Ub4.
Excerpt: as §3

Where [6] appears, read: single-site fit, 25° C., pH 7.4.

The term Kd denotes the equilibrium constant for the complex coming apart. The low end stands for tighter binding, the high end for weaker binding.

Several values for one entry are separate records, joined by “and”; a condition that tells them apart may be missing. Identical values can stand only once. Where no end group is shown, it is not given here. The star is where a group is joined. Fluorescein(5-Mal) = O=C1OC2(c3ccc(O)cc3Oc3cc(O)ccc32)c2ccc(N3C(=O)CC(*)C3=O)cc21 Bounds are passed on as bounds.

Procedure for K48-Ub2: Fluorescence Anisotropy Binding Assays. Fluorescence anisotropy measurements were made using a Fluoromax 4 fluorometer in L format, thermostatted at 25° C. Excitation and emission monochromators were set at 492 nm and 520 nm, respectively. Slit widths were 3 nm for diUb-binding assays (1 mM fluorophore) or 6 nm for tetraUb-binding assays (0.1 mM fluorophore). Anisotropies were calculated by the instrument software, and the overall intensity of the fluorescence signal was monitored at each point with the polarizers oriented at the magic angle. All measurements were made in fluorescence buffer (25 mM Na phosphate [pH 7.4], 150 mM NaCl, 5 mM β-mercaptoethanol, 1 mM EDTA, and either 0.005% surfactant P20 (BIACORE) or 0.05% Brij35). Concentrations of the fluorescent proteins were calculated using the fluorescein extinction coefficient at 494 nm, 68000 M^-1 cm^-1. (poly)Ub concentrations were assessed by absorbance at 280 nm using the extinction coefficient 0.16 (mg/ml)^-1 cm^-1 ([…] and Raasi, 2005). Fluorescence anisotropy data were fit with a single-site binding model as described (Wilkinson, 2004).

In the case of Ddi1, the “difference in Kd for K63- and K48-Ub4” value with K63-Ub4 [1] is given as under 2 fold. The substance further yielded a Kd at K48-Ub4 [2] of 50 µM.
For the substance “GST-UBA Ede1: GST fusion of the yeast Ede1 UBA domain, dimeric; sequence in Table 3 (GSATTPKSLAVEELSGMGFTEEEAHNALEKCNWDLEAATNFLLDSA; also: GST fusion, dimeric)”, in the assay with K63-Ub4 [3], the “K63-Ub4 affinity of the GST fusion tighter than the free domain” value turned out to be 9 fold. Moreover, the “preference for K63-Ub4 over K48-Ub4 by pull-down” value in the assay with K63-Ub4 and K48-Ub4 (125I-labeled Ub4 1 μM, bound counts, listed as GST-Ede1) was 12 fold and > 11 fold.
Regarding “GST-UBA hHR23A UBA1: GST fusion of human hHR23A UBA1 domain; sequence in Table 3”, the “K63-Ub4 affinity of the GST fusion tighter than the free domain” value with K63-Ub4 [3] is over 6 fold.
In the case of “GST-fmm: functionally monomeric mixture: GST-His homodimers and GST-His/GST-Ede1 heterodimers at about 6:1 (GSATTPKSLAVEELSGMGFTEEEAHNALEKCNWDLEAATNFLLDSA; also: GST-His fusion, mixture of GST-His homodimers and GST-His/GST-Ede1 heterodimers at about 6:1)”, in the assay on K63-Ub4 and K48-Ub4 (125I-labeled K63-Ub4 versus K48-Ub4), the “Ub4 linkage preference by pull-down” value was “no linkage preference”.
Consider “PSSHHHHHHSSGLVPRGSHMTEEEQEQEAREVNSQEEEEEELLRKAIAESLNSC(Fluorescein(5-Mal))RPS [UIM2]”, for which the results for the Kd on monoUb, at K63-Ub2 (text of Example 2) and at K48-Ub2 were 520 µM, 470 µM and 200 µM, respectively.
As for “PSSHHHHHHSSGLVPRGSHMTEEEQFALALKMSEQEAAAEEEEELLRKAIAESLNSC(Fluorescein(5-Mal))RPS [Rap80 2A linker]”, the Kd was determined as 110 µM at K63-Ub2 (setting [6]), 180 µM on K48-Ub2 and 19 µM on K63-Ub4 [4].
The corresponding values for “PSSHHHHHHSSGLVPRGSHMTEEEQFALALKMSEQEADMEEEEELLRKAIAESLNSC(Fluorescein(5-Mal))RPS [Rap80 ataxin linker]” are 115 µM, 143 µM and 20 µM.
On to “PSSHHHHHHSSGLVPRGSHMTEEEQFALALKMSEQEAEEEEELLRKAIAESLNSC(Fluorescein(5-Mal))RPS [Rap80 no linker]”, for which the Kd at K63-Ub2 (setting [6]) came to 47 µM.
Turning to “PSSHHHHHHSSGLVPRGSHMTEEEQFALALKMSEQEAREVNSQEEEEEELLNSC(Fluorescein(5-Mal))RPS [UIM1]”, the Kd was found to be 510 µM at monoUb, 230 µM on K63-Ub2 (text of Example 2) and 280 µM at K48-Ub2.
For the substance “ataxin-3 (WT): human ataxin-3 tandem UIM peptide, 2-residue linker DM”, the Kd with K63-Ub2 (setting [6]) stood at 91 µM; with K48-Ub2, 100 µM; on K48-Ub4 [5] (fluorescence anisotropy, single-site fit, 25° C., pH 7.4), 3.3 µM. In addition, the “preference for K48-Ub4 over K63-Ub4” value in the assay on K48-Ub4 [5] (fluorescence anisotropy Kd values, Table 2) is recorded as 5 fold.
